Tested on: SETDB1, CSV, ATF7IP, IMPα1 in H1299 cells
Test: IFA microscopy of SETDB1, CSV, ATF7IP, IMPα1 in H1299
Type: cell-based, human
Parameters: dose or concentration left out as unconfirmed
Protocol: FIG. 18. […] Protein targets were localized by ASI digital pathology. […] Protein targets were localized by ASI digital pathology.
IFA microscopy and cell culture methods were performed as described in detail, above.

Mithramycin A [MTH]
expression of mesenchymal metastatic marker CSV: induced an increase | nuclear expression of SETDB1: no effect
